PubChem BioAssay AID256 (DTP/NCI, 2004)
Values joined by “and” are separate entries in the source; they are usually repeats but may differ in a detail not shown here. Identical values can stand only once. Toxic doses and inconclusive results are not listed. The calls were made as follows: active = survival T/C of 150% or more; inactive = T/C below 125% in these data.

Tested on: CD2F1 mice, L1210 leukemia ip, survival T/C
Assay: NCI In Vivo Anticancer Drug Screen. Data for tumor model L1210 Leukemia (intraperitoneal) in CD2F1 (CDF1) mice
Conditions: endpoint: mean survival time, higher = longer survival
Procedure, shortened: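 Compound-dosed mice with transplantable tumor versus matched vehicle controls; endpoint ratio T/C reported.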

[1] = dose: 100.0 mg/kg/injection, schedule: Q01DX009 (ip), vehicle: saline with Tween-80
[2] = dose: 200.0 mg/kg/injection, schedule: Q01DX009 (ip), vehicle: saline with Tween-80
[3] = dose: 400.0 mg/kg/injection, schedule: Q01DX009 (ip), vehicle: saline with Tween-80
[4] = dose: 100.0 mg/kg/injection, schedule: Q01DX001 (ip), vehicle: saline
[5] = dose: 200.0 mg/kg/injection, schedule: Q01DX001 (ip), vehicle: saline
[6] = dose: 400.0 mg/kg/injection, schedule: Q01DX001 (ip), vehicle: saline
[7] = dose: 25.0 mg/kg/injection, schedule: Q01DX009 (ip), vehicle: water
[8] = dose: 50.0 mg/kg/injection, schedule: Q01DX009 (ip), vehicle: water
[9] = dose: 100.0 mg/kg/injection, schedule: Q01DX009 (ip), vehicle: water
[10] = dose: 100.0 mg/kg/injection, schedule: Q04DX002 (ip), vehicle: saline with Tween-80
[11] = dose: 25.0 mg/kg/injection, schedule: Q04DX003 (ip), vehicle: saline with Tween-80
[12] = dose: 100.0 mg/kg/injection, schedule: Q04DX003 (ip), vehicle: saline with Tween-80
[13] = dose: 200.0 mg/kg/injection, schedule: Q04DX003 (ip), vehicle: saline with Tween-80

Measured: T/C

CCc1ncc(C(C)(O)c2ccccc2)n1Cc1ccccc1 (stereo not drawn)
inactive: [1] 95 % of control | [2] 90 % of control | [3] 94 % of control

O=S1(=O)CC23C=CC=CC2(CCCC3)C1Cl (stereo not drawn)
inactive: dose: 100.0 mg/kg/injection, schedule: Q04DX003 (ip), vehicle: other 94 % of control

Nc1ccc(C(=O)Nc2ccc(S(=O)(=O)F)cc2)cc1
inactive: [4] 100 % of control | [5] 96 % of control | [6] 102 % of control

COC(=O)C(I)C(OC)c1ccccc1 (stereo not drawn)
inactive: [1] 107 % of control | [2] 100 % of control | [3] 97 % of control

O=C(NCCI)NC1C(O)OC(CO)C(O)C1O (stereo not drawn)
inactive: dose: 12.5 mg/kg/injection, schedule: Q01DX009 (ip), vehicle: water 93 % of control | [7] 92 % of control | [8] 93 % of control | [9] 95 % of control | dose: 200.0 mg/kg/injection, schedule: Q01DX009 (ip), vehicle: water 89 % of control

COc1cc2cc[n+](C)cc2cc1OC
inactive: [7] 98 % of control | [8] 103 % of control | [9] 101 % of control

COC(=O)CCCCCCCCCC(=O)OC
inactive: [10] 87 % of control | dose: 200.0 mg/kg/injection, schedule: Q04DX002 (ip), vehicle: saline with Tween-80 102 % of control | dose: 400.0 mg/kg/injection, schedule: Q04DX002 (ip), vehicle: saline with Tween-80 98 % of control

S=c1[n-]c2ccccc2s1.S=c1[n-]c2ccccc2s1.[Cl][Pt+2][Cl]
inactive: [11] 95 % of control | dose: 50.0 mg/kg/injection, schedule: Q04DX003 (ip), vehicle: saline with Tween-80 88 % of control | [12] 93 % of control | [13] 90 % of control

Nc1nc(SCc2ccccc2[N+](=O)[O-])c2[nH]cnc2n1
inactive: dose: 125.0 mg/kg/injection, schedule: Q01DX Z (ip), vehicle: carboxymethylcellulose (CMC) 102 % of control | dose: 250.0 mg/kg/injection, schedule: Q01DX Z (ip), vehicle: carboxymethylcellulose (CMC) 104 % of control | dose: 500.0 mg/kg/injection, schedule: Q01DX Z (ip), vehicle: carboxymethylcellulose (CMC) 116 % of control | dose: 1000.0 mg/kg/injection, schedule: Q01DX Z (ip), vehicle: carboxymethylcellulose (CMC) 112 % of control

O=C(OC1CCC(c2ccccc2)C1)c1cc([N+](=O)[O-])cc([N+](=O)[O-])c1 (stereo not drawn)
inactive: dose: 75.0 mg/kg/injection, schedule: Q01DX001 (ip), vehicle: other 92 % of control | dose: 150.0 mg/kg/injection, schedule: Q01DX001 (ip), vehicle: other 92 % of control | dose: 300.0 mg/kg/injection, schedule: Q01DX001 (ip), vehicle: other 92 % of control

CC(C)NC(=O)c1ccc(N=NN(C)C)cc1
inactive: dose: 12.5 mg/kg/injection, schedule: Q01DX009 (ip), vehicle: other 91 % of control and 105 % of control | dose: 25.0 mg/kg/injection, schedule: Q01DX009 (ip), vehicle: DMSO 104 % of control | dose: 25.0 mg/kg/injection, schedule: Q01DX009 (ip), vehicle: other 119 % of control and 100 % of control | dose: 50.0 mg/kg/injection, schedule: Q01DX009 (ip), vehicle: DMSO 110 % of control | dose: 100.0 mg/kg/injection, schedule: Q01DX009 (ip), vehicle: other 119 % of control

CCOC(=O)C(CC)(OC(C)=O)C(=O)C=O (stereo not drawn)
inactive: [4] 108 % of control | [5] 112 % of control | [6] 116 % of control

CC1=CC(=Nc2ccc(N(CCCl)CCCl)cc2)C=C(C)C1=O
inactive: dose: 6.25 mg/kg/injection, schedule: Q01DX009 (ip), vehicle: Klucel (hydroxypropylcellulose) (HPC) 115 % of control and 108 % of control | dose: 100.0 mg/kg/injection, schedule: Q01DX009 (ip), vehicle: Klucel (hydroxypropylcellulose) (HPC) 86 % of control and 96 % of control

CCCCN(C)c1ccc(N=Nc2cc(Cl)ccc2Cl)cc1
inactive: dose: 25.0 mg/kg/injection, schedule: Q04DX002 (ip), vehicle: saline with Tween-80 96 % of control | dose: 50.0 mg/kg/injection, schedule: Q04DX002 (ip), vehicle: saline with Tween-80 101 % of control | [10] 104 % of control

COC(=O)C(CCCCN)NC(=O)c1ccccc1 (stereo not drawn)
inactive: [12] 101 % of control | [13] 103 % of control | dose: 400.0 mg/kg/injection, schedule: Q04DX003 (ip), vehicle: saline with Tween-80 101 % of control

c1ccc2c(NC3=NCCO3)c3ccccc3nc2c1
inactive: dose: 12.5 mg/kg/injection, schedule: Q04DX003 (ip), vehicle: saline with Tween-80 93 % of control | [11] 96 % of control

O=C(OC1C2C=COC(OC3OC(CO)C(O)C(O)C3O)C2C2(CO)OC12)c1ccc(O)cc1 (stereo not drawn)
inactive: dose: 25.0 mg/kg/injection, schedule: Q01DX001 (ip), vehicle: carboxymethylcellulose (CMC) 101 % of control | dose: 50.0 mg/kg/injection, schedule: Q01DX001 (ip), vehicle: carboxymethylcellulose (CMC) 98 % of control | dose: 100.0 mg/kg/injection, schedule: Q01DX001 (ip), vehicle: carboxymethylcellulose (CMC) 89 % of control

NP(=O)(OCCC(OCc1ccccc1)OCc1ccccc1)N(CCCl)CCCl (stereo not drawn)
inactive: dose: 25.0 mg/kg/injection, schedule: Q01DX001 (ip), vehicle: DMSO 100 % of control | dose: 50.0 mg/kg/injection, schedule: Q01DX001 (ip), vehicle: DMSO 100 % of control | dose: 100.0 mg/kg/injection, schedule: Q01DX001 (ip), vehicle: DMSO 91 % of control | dose: 200.0 mg/kg/injection, schedule: Q01DX001 (ip), vehicle: DMSO 97 % of control | dose: 400.0 mg/kg/injection, schedule: Q01DX001 (ip), vehicle: DMSO 103 % of control
